Results published in ChEMBL document CHEMBL1201862, “PubChem BioAssay data set” (2004).
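Values below derive from 48-hour exposures of cells grown in 96-well plates, with endpoints linearly interpolated between the two concentrations bracketing the appropriate inhibition level. GI50 = concentration required for 50% inhibition of growth.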 Activity calls are given as the source filed them. Cut-off read from the data, not from the text of the source: active = GI50 up to about 1.1 µM and inactive = higher.

How the values were obtained:
Test in all cases: growth of human tumour cells (NCI), 48 h
IGROV-1 = tested on: IGROV-1
HCT-116 = tested on: HCT-116
OVCAR-5 = tested on: OVCAR-5
SK-MEL-2 = tested on: SK-MEL-2
KM12 = tested on: KM12
CCRF-CEM = tested on: CCRF-CEM
SN12C = tested on: SN12C
A498 = tested on: A498
Malme-3M = tested on: Malme-3M
MCF7 = tested on: MCF7
SF-295 = tested on: SF-295
HCT-15 = tested on: HCT-15
SNB-19 = tested on: SNB-19
NCI/ADR-RES = tested on: NCI/ADR-RES
ACHN = tested on: ACHN
HT-29 = tested on: HT-29
NCI-H522 = tested on: NCI-H522
HOP-62 = tested on: HOP-62
MDA-MB-435 = tested on: MDA-MB-435
MDA-N = tested on: MDA-N
NCI-H460 = tested on: NCI-H460
HL-60 = tested on: HL-60
LOX IMVI = tested on: LOX IMVI
786-0 = tested on: 786-0
A549 = tested on: A549
SK-MEL-28 = tested on: SK-MEL-28
TK-10 = tested on: TK-10
SW-620 = tested on: SW-620
RXF 393 = tested on: RXF 393
K562 = tested on: K562
UACC-257 = tested on: UACC-257
OVCAR-4 = tested on: OVCAR-4
HCC 2998 = tested on: HCC 2998
SF-539 = tested on: SF-539
UACC-62 = tested on: UACC-62
U-251 = tested on: U-251
UO-31 = tested on: UO-31
OVCAR-8 = tested on: OVCAR-8
PC-3 = tested on: PC-3
MDA-MB-231 = tested on: MDA-MB-231
RPMI-8226 = tested on: RPMI-8226
T47D = tested on: T47D
COLO 205 = tested on: COLO 205
SK-OV-3 = tested on: SK-OV-3
Hs-578T = tested on: Hs-578T
DU-145 = tested on: DU-145
BT-549 = tested on: BT-549
HOP-92 = tested on: HOP-92
MOLT-4 = tested on: MOLT-4
EKVX = tested on: EKVX
CAKI-1 = tested on: CAKI-1
OVCAR-3 = tested on: OVCAR-3
M14 = tested on: M14
NCI-H23 = tested on: NCI-H23
SF-268 = tested on: SF-268
SNB-75 = tested on: SNB-75
SK-MEL-5 = tested on: SK-MEL-5
NCI-H226 = tested on: NCI-H226

## O=C(c1ccco1)N(C(=S)OCCOc1ccccc1)c1ccccc1
IGROV-1
  GI50: 17.7 µM (inactive)
HCT-116
  GI50: 17.3 µM (inactive)
OVCAR-5
  GI50: 19.2 µM (inactive)
SK-MEL-2
  GI50: 19.6 µM (inactive)
KM12
  GI50: 19.5 µM (inactive)
CCRF-CEM
  GI50: 20.1 µM (inactive)
SN12C
  GI50: 19.5 µM (inactive)
A498
  GI50: 16 µM (inactive)
Malme-3M
  GI50: 19.9 µM (inactive)
MCF7
  GI50: 20.7 µM (inactive)
SF-295
  GI50: 16.2 µM (inactive)
HCT-15
  GI50: 22.3 µM
SNB-19
  GI50: 26.7 µM (inactive)
NCI/ADR-RES
  GI50: 25.7 µM (inactive)
ACHN
  GI50: 23 µM (inactive)
HT-29
  GI50: 19.2 µM (inactive)
NCI-H522
  GI50: 17.1 µM (inactive)
HOP-62
  GI50: 16.2 µM (inactive)
MDA-MB-435
  GI50: 16.2 µM (inactive)
MDA-N
  GI50: 18.9 µM (inactive)
NCI-H460
  GI50: 21.9 µM (inactive)
HL-60
  GI50: 24.3 µM (inactive)
LOX IMVI
  GI50: 19.3 µM (inactive)
786-0
  GI50: 19.7 µM (inactive)
A549
  GI50: 30.8 µM (inactive)
SK-MEL-28
  GI50: 18.2 µM (inactive)
TK-10
  GI50: 20.9 µM (inactive)
SW-620
  GI50: 20.5 µM (inactive)
RXF 393
  GI50: 13.8 µM (inactive)
K562
  GI50: 28.4 µM (inactive)
UACC-257
  GI50: 17.9 µM (inactive)
OVCAR-4
  GI50: 20 µM (inactive)
HCC 2998
  GI50: 21 µM (inactive)
SF-539
  GI50: 22.9 µM (inactive)
UACC-62
  GI50: 16.6 µM (inactive)
U-251
  GI50: 16.5 µM (inactive)
UO-31
  GI50: 15.7 µM (inactive)
OVCAR-8
  GI50: 19.8 µM (inactive)
PC-3
  GI50: 24.1 µM (inactive)
MDA-MB-231
  GI50: 16.4 µM (inactive)
RPMI-8226
  GI50: 19.8 µM (inactive)
T47D
  GI50: 20.5 µM (inactive)
COLO 205
  GI50: 21 µM (inactive)
SK-OV-3
  GI50: 21.8 µM (inactive)
Hs-578T
  GI50: 32.1 µM (inactive)
DU-145
  GI50: 20.3 µM (inactive)
BT-549
  GI50: 23 µM (inactive)
HOP-92
  GI50: 14.8 µM (inactive)
MOLT-4
  GI50: 23.8 µM (inactive)
EKVX
  GI50: 22.1 µM (inactive)
CAKI-1
  GI50: 18.7 µM (inactive)
OVCAR-3
  GI50: 16.5 µM (inactive)
M14
  GI50: 19.5 µM (inactive)
NCI-H23
  GI50: 21.3 µM (inactive)
SF-268
  GI50: 18 µM (inactive)

## COc1ccc(C(CC(=O)c2ccc3c(c2)OCO3)c2c(O)oc3ccccc3c2=O)cc1OC (stereo not drawn)
IGROV-1
  GI50: > 100 µM (inactive)
HCT-116
  GI50: 75.3 µM (inactive)
OVCAR-5
  GI50: > 100 µM (inactive)
SK-MEL-2
  GI50: > 100 µM (inactive)
KM12
  GI50: > 100 µM (inactive)
SNB-75
  GI50: > 100 µM (inactive)
CCRF-CEM
  GI50: > 100 µM (inactive)
SN12C
  GI50: > 100 µM (inactive)
A498
  GI50: > 100 µM (inactive)
Malme-3M
  GI50: > 100 µM (inactive)
MCF7
  GI50: 69.3 µM (inactive)
SF-295
  GI50: > 100 µM (inactive)
SK-MEL-5
  GI50: 47 µM (inactive)
HCT-15
  GI50: > 100 µM
SNB-19
  GI50: > 100 µM (inactive)
NCI/ADR-RES
  GI50: > 100 µM (inactive)
ACHN
  GI50: > 100 µM (inactive)
HT-29
  GI50: 72.6 µM (inactive)
NCI-H522
  GI50: > 100 µM (inactive)
HOP-62
  GI50: > 100 µM (inactive)
MDA-MB-435
  GI50: > 100 µM (inactive)
MDA-N
  GI50: > 100 µM (inactive)
NCI-H460
  GI50: 44.7 µM (inactive)
HL-60
  GI50: > 100 µM (inactive)
LOX IMVI
  GI50: 66.5 µM (inactive)
786-0
  GI50: > 100 µM (inactive)
A549
  GI50: 51.1 µM (inactive)
SK-MEL-28
  GI50: > 100 µM (inactive)
TK-10
  GI50: 67.8 µM (inactive)
SW-620
  GI50: > 100 µM (inactive)
RXF 393
  GI50: > 100 µM (inactive)
K562
  GI50: 63.5 µM (inactive)
UACC-257
  GI50: > 100 µM (inactive)
OVCAR-4
  GI50: 61.8 µM (inactive)
HCC 2998
  GI50: > 100 µM (inactive)
SF-539
  GI50: > 100 µM (inactive)
UACC-62
  GI50: 40.6 µM (inactive)
U-251
  GI50: > 100 µM (inactive)
UO-31
  GI50: 73.3 µM (inactive)
OVCAR-8
  GI50: > 100 µM (inactive)
PC-3
  GI50: 88.5 µM (inactive)
MDA-MB-231
  GI50: > 100 µM (inactive)
NCI-H226
  GI50: > 100 µM (inactive)
RPMI-8226
  GI50: 45.1 µM (inactive)
T47D
  GI50: > 100 µM (inactive)
COLO 205
  GI50: 63.4 µM (inactive)
SK-OV-3
  GI50: > 100 µM (inactive)
Hs-578T
  GI50: 45.8 µM (inactive)
DU-145
  GI50: > 100 µM (inactive)
BT-549
  GI50: 36.2 µM (inactive)
HOP-92
  GI50: 38.5 µM (inactive)
MOLT-4
  GI50: > 100 µM (inactive)
EKVX
  GI50: > 100 µM (inactive)
CAKI-1
  GI50: > 100 µM (inactive)
OVCAR-3
  GI50: 82.8 µM (inactive)
M14
  GI50: 1 µM (active)
NCI-H23
  GI50: 78 µM (inactive)
SF-268
  GI50: > 100 µM (inactive)
